Data taken from US7611863B2, “Selective staining of biomembranes using voltage-sensitive dyes” (Max-Planck-Gesellschaft zur Foerderung der Wissenschaften …, priority 2004, dated 2009).

Experiments:
[1] = Enzyme induced staining of giant vesicles; type: biochemical; details: giant POPC vesicles, 9.8 μM dye phosphate, PLAP added
Experimental: Enzyme induced staining of giant vesicles. Giant POPC vesicles were prepared by electroswelling^27,28. 5 μl of a 2 mM lipid solution in diethylether/methanol (9:1, v/v) were applied to a pair of planar electrodes of indium tin oxide coated with 70 nm of silica. After evaporation of the solvent under reduced pressure (0.1 mbar), 2 ml of 300 mM sucrose were added and giant vesicle formation was promoted by applying AC voltage to the electrodes. After formation was complete, vesicles were transferred to 35 mm polypropylene cell culture dishes (BD Biosciences Europe, Le Pont de Claix, France) and diluted in the same buffer. They were used the same day.
For enzyme kinetic measurements at room temperature, 400 μl of the giant vesicle stock solution were transferred to a culture dish containing 3,600 μl buffer (20 mM Tris, 100 mM NaCl, 120 mM Glucose, pH 8.1). […] The fluorescence of a selected giant vesicle with a diameter of 10 to 40 μm was observed using a microscope (Axioskop, Zeiss, Oberkochen, Germany) equipped with a 100 water immersion objective and a b/w CCD camera (Sony ICX 285 Chip, Theta System, Gröbenzell, Germany). […] The fluorescence was detected through the dichroic mirror and a long pass filter (510 nm). […] Images were recorded every 10 or 20 seconds before and after addition of the phosphatase. […]

[2] = system: phosphatase expressing cells; assay: Destaining of cells after enzyme induced staining; type: cell-based
Experimental: FIG. 18. Destaining. Cells were incubated with Di-12P-ASPBS for 30 seconds, then the medium containing the dye precursor was removed and the cells were washed twice in buffer containing no dye. Fluorescence images were recorded with excitation filter 450/50 nm, emission filter 510 nm, dichroic mirror 505 nm. A. Brightfield image of cells and fluorescence images of cells illustrating destaining of the cell membrane by diffusion of the dye into the bulk medium. B. Time course of destaining. The maximum fluorescence intensity of the membrane is plotted vs. time.
Destaining. […] Cells were incubated with Di-12P-ASPBS for 30 seconds, then the medium containing the dye precursor was removed and the cells were washed twice in buffer containing no dye.

[3] = system: Madine Darby Canine Kidney (MDCK) cells; assay: Enzyme induced staining of transiently transfected MDCK cells; type: cell-based; details: 200 nM
Experimental: FIG. 19. Genetically Targeted Staining of MDCK cells with Di-10P-ASPBS and Di-12P-ASPBS. (A) Cells were cotransfected with the membrane-bound phosphatase construct termed ArtPlasMA AP and H2B-GFP, a nucleus-localized transfection marker. Brightfield image and fluorescence images before (−1 sec) and after addition of 200 nM Di-10P-ASPBS. (B) Analogous to row A, but using 200 nM Di-12P-ASPBS. (C) Control experiment. Cells were transfected only with H2B-GFP and incubated with 200 nM Di-12P-ASPBS. Brightfield image and fluorescence images before (−1 sec) and after addition of dye (8 min). (D) Control experiment. Cells were cotransfected with the membrane-bound phosphatase construct termed ArtPlasMA AP and H2B-GFP and incubated with the dye Di-10A-ASPBS. Brightfield image and fluorescence image before (−1 sec) and after addition of dye (20 sec).
Two control experiments were performed: In the first control, cells were transfected only with the transfection marker H2B-GFP. […] In addition, no difference in staining intensity between transfected and untransfected cells can be discerned (FIG. 19C). In the second control experiment, cells were cotransfected with the phosphatase construct and the transfection marker.

## CCCCN(CCCC)c1ccc(/C=C/c2cc[n+](CCCOP(=O)([O-])O)cc2)cc1 [Di-4-ASPP phosphate]
[1]
  ratio of fluorescence intensities F∞/F0: 9-13

## Di-12-phosphato-ASPBS [Di-12P-ASPBS]
[2]
  membrane leaflet to which the dye binds: binds almost exclusively to the extracellular leaflet
[2]; diffusion of bound dye to bulk medium
  fluorescence of stained membranes over time after washing: the fluorescence intensity of the stained membranes declined
[2]; medium removed, washed twice
  selectivity of staining after 30 seconds incubation and washing: selective staining of phosphatase expressing cells could be observed
[3]; after 10 minutes incubation
  staining of directly adjacent cells: Directly adjacent cells are weakly stained
[3]; cells cotransfected with ArtPlasMA AP and H2B-GFP
  localization of staining over several minutes: Staining is well localized even after 10 minutes incubation
[3]; transfected only with H2B-GFP
  staining of control cells without phosphatase: only weakly stained
